Earlier results on two molecules are cited in PMC5613016, “GRL-09510, a Unique P2-Crown-Tetrahydrofuranylurethane -Containing HIV-1 Protease Inhibitor, Maintains Its Favorable Antiviral Activity against Highly-Drug-Resistant HIV-1 Variants in vitro” (Scientific Reports, 2017).

In series [1] the test system is HIV-1ERS104pre (wild-type). The note with it: PHA-PBMs, p24 assay, previously reported; and 22; read-out: EC50 HIV-1WT/ERS104pre; cited from earlier work.
The test system of the next series is HIV-1APV ^R 5μM. Also noted: method as in earlier work. The settings on record: and 22, cited from earlier work; for EC50: MT-4 cells, p24 assay, previously reported, read-out: EC50 HIV-1APVR5M; for fold change in EC50 HIV-1APVR5M: compared to HIV-1NL4-3, previously reported data.
For the next series, the system named is HIV-1NL4-3. The settings on record: MT-4 cells, p24 assay, previously reported; and 22; cited from earlier work.
For another series, the system named is HIV-1MDR/G. Also noted: method as in earlier work. The settings on record: and 22, cited from earlier work; for EC50: PHA-PBMs, p24 assay, previously reported; for fold change in EC50 HIV-1MDR/G: compared to HIV-1WT/ERS104pre, previously reported data.

For the molecule `COc1ccc(S(=O)(=O)N(CC(C)C)C[C@@H](O)[C@H](Cc2ccccc2)NC(=O)OC2CO[C@H]3OCC(F)(F)[C@@H]23)cc1` (stereo partly drawn) [GRL-04810], the EC50 in series [1] was 2.3 ± 0.1 nM; with HIV-1APV ^R 5μM, 430 ± 20 nM; with HIV-1NL4-3 it was 0.5 ± 0.5 nM; with HIV-1MDR/G it was 4 ± 1 nM. Moreover, the “fold change in EC50 HIV-1APVR5M” value in the series on HIV-1APV ^R 5μM is on record as 860. In addition, the “fold change in EC50 HIV-1MDR/G” value in the series on HIV-1MDR/G is 2.
`CC(C)CN(C[C@@H](O)[C@H](Cc1ccccc1)NC(=O)O[C@H]1CO[C@H]2OCC(F)(F)[C@H]21)S(=O)(=O)c1ccc(N)cc1` [GRL-05010]: the EC50 was 2.7 ± 0.3 nM in series [1], 560 ± 30 nM in the series with HIV-1APV ^R 5μM, 3.7 ± 0.1 nM in the series on HIV-1NL4-3 and 4 ± 1 nM in the series with HIV-1MDR/G. Moreover, the “fold change in EC50 HIV-1APVR5M” value in the series with HIV-1APV ^R 5μM was 187. For the same molecule, in the series with HIV-1MDR/G, the “fold change in EC50 HIV-1MDR/G” value was 1.
